Drawing on ChEMBL document CHEMBL1139911, “4-substituted indazoles as new inhibitors of neuronal nitric oxide synthase” (Bioorg Med Chem Lett, 2007), this text covers IC50 and Activity for 17 compounds.

The target of one assay is Nitric oxide synthase 1 (Rattus norvegicus, UniProt P29476). Briefly: Inhibition of rat neuronal NOS.
Assay [1] deals with Mus musculus. Kind of assay: Reversal of antinociceptive effect in L-arginine pretreated mouse assessed as number or writhes for 10 mins at 50 mg/kg, ip. It counts as functional. As to conditions: route intraperitoneal.
Assay [2] concerns Mus musculus. Briefly: Antinociceptive effect in acetic acid-induced mouse assessed as number of writhes for 10 mins at 25 mg/kg, ip. It counts as functional. As to conditions: route intraperitoneal.
Assay [3] concerns Mus musculus. Briefly: Antinociceptive effect in acetic acid-induced mouse assessed as number of writhes for 10 mins at 50 mg/kg, ip. It counts as functional. As to conditions: route intraperitoneal.
The test system of assay [4] is Mus musculus. Briefly: Antinociceptive effect in acetic acid-induced mouse assessed as number of writhes for 10 mins at 12.5 mg/kg, ip. It counts as functional. As to conditions: route intraperitoneal.
Assay [5] concerns Mus musculus. Briefly: Antinociceptive effect in mouse assessed as number of writhes for 10 mins at 50 mg/kg, ip. It counts as functional. As to conditions: route intraperitoneal.

Nitric oxide synthase 1, sequence (P29476 whole entry): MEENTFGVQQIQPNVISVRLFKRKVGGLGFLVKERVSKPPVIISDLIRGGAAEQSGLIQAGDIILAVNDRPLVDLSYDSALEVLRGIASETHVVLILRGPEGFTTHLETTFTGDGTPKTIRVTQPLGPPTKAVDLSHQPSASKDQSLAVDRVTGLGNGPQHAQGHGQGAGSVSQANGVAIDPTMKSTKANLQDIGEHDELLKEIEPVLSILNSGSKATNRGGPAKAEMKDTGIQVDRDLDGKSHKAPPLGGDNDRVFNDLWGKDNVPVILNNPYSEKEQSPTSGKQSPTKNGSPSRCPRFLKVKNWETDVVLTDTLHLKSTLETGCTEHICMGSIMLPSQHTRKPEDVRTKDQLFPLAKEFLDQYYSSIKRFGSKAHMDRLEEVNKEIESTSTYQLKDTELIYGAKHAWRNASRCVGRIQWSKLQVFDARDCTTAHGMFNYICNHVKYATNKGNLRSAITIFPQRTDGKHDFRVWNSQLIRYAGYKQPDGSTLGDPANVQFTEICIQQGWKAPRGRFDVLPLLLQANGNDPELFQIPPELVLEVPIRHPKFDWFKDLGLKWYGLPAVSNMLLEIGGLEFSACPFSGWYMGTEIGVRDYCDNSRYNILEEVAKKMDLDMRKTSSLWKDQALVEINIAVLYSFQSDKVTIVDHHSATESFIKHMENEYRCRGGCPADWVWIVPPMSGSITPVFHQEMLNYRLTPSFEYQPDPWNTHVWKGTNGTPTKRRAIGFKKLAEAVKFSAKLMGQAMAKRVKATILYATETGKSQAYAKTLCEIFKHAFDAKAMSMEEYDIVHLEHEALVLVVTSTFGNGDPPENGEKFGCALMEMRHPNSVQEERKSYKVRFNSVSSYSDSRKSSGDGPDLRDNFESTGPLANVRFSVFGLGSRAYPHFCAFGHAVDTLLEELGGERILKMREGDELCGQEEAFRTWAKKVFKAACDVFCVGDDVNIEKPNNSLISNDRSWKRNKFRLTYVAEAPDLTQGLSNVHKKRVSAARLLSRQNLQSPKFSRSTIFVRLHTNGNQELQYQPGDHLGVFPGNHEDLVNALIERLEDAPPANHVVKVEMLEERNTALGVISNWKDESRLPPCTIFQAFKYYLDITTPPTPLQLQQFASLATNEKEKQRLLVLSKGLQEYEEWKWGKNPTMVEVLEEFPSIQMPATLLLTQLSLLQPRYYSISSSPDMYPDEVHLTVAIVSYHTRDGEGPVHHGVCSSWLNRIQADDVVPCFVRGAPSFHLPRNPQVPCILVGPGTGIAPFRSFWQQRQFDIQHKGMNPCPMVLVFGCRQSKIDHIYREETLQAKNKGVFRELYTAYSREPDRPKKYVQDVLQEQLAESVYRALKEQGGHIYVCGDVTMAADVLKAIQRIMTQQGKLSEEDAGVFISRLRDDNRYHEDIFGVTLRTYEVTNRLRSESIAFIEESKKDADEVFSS

In the case of `Fc1ccc2[nH]ncc2c1`, on Nitric oxide synthase 1, the IC50 was more than 100 µM.

`Brc1ccc2[nH]ncc2c1` registered a half-inhibitory concentration (IC50) at Nitric oxide synthase 1 of 72 µM.

For the compound `Brc1cccc2[nH]ncc12`, the Activity was 24.3 in the assay with Mus musculus [1]; 8.8 with Mus musculus [2]; 9.3 in the assay on Mus musculus [3]; 11 with Mus musculus [4]; 10.8 in the assay on Mus musculus [5]. On Nitric oxide synthase 1, this compound had an IC50 of 2.4 µM.

At Nitric oxide synthase 1, `Clc1cccc2[nH]ncc12` had an IC50 of 44.3 µM.

`Ic1cccc2[nH]ncc12` showed a concentration for half-maximal inhibition (IC50) on Nitric oxide synthase 1 of 17 µM.

On Nitric oxide synthase 1, `Clc1ccc2[nH]ncc2c1` gave an IC50 of 59.3 µM.

`Brc1ccc2cn[nH]c2c1`: half-maximal inhibition at Nitric oxide synthase 1 (IC50) was put at 4.3 µM.

Regarding `Fc1ccc2cn[nH]c2c1`, the half-maximal inhibitory concentration (IC50) against Nitric oxide synthase 1 is more than 100 µM.

As for `Clc1cccc2cn[nH]c12`, the Activity in the assay on Mus musculus [1] is 23; with Mus musculus [2], 12.9; in the assay on Mus musculus [3], 7.9; with Mus musculus [4] it was 15; in the assay on Mus musculus [5], 12.1. Further, on Nitric oxide synthase 1, the half-inhibitory concentration (IC50) worked out at 4.2 µM.

`Ic1ccc2[nH]ncc2c1` showed a concentration for half-maximal inhibition (IC50) at Nitric oxide synthase 1 of 37 µM. This counts as double-digit micromolar.

Regarding `Clc1ccc2cn[nH]c2c1`, inhibition against Nitric oxide synthase 1 was half-maximal at 22 µM (IC50).

On Nitric oxide synthase 1, `Fc1cccc2[nH]ncc12` showed a half-inhibitory concentration (IC50) of more than 100 µM.

Consider `O=[N+]([O-])c1cccc2[nH]ncc12`, for which the Activity is 23.8 with Mus musculus [1]; 9.9 in the assay with Mus musculus [2]; 9.3 in the assay on Mus musculus [3]; 18 in the assay with Mus musculus [4]; 11.8 in the assay on Mus musculus [5].

On Nitric oxide synthase 1, `Brc1cccc2cn[nH]c12` returned a concentration for half-maximal inhibition (IC50) of 14.3 µM.

With `O=[N+]([O-])c1cccc2cn[nH]c12` [7-NITROINDAZOLE], in the assay with Mus musculus [3], the Activity is listed as 6.8.

On to `N=C(N)NCCC[C@H](N)C(=O)O` [ARGININE], for which the Activity in the assay on Mus musculus [5] is reported as 22.9.

With `CC(=O)Oc1ccccc1C(=O)O` [ASPIRIN], the Activity in the assay with Mus musculus [4] was found to be 7.6.

Usually IC50 stands for the concentration needed to halve the response being measured. Read a high IC50 as weaker potency.
